From patent publication US11124479B2, “Oligopyrroles as antagonists of islet amyloid polypeptide oligomerization” (New York University, priority 2017, dated 2021)

Key:
Partition coefficient = assay type: physicochemical
[1] = target: T1, islet amyloid polypeptide (IAPP) (Homo sapiens, UniProt P10997); test: Circular dichroism (CD) spectroscopy of IAPP conformation; settings: for IAPP conformation by CD: 15 μM IAPP, equimolar ratio
T1 construct: IAPP is a 37 residue neuropancreatic hormone peptide; purchased Anaspec (Fremont, Calif.)
T1 sequence (P10997 34-70 limits assumed): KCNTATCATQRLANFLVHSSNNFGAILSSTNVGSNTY
Method: A freshly prepared stock solution of IAPP (500 μM in water) was diluted to 15 μM in phosphate buffer for CD measurements. The spectra of IAPP were recorded at 0.5 nm intervals from 190 to 260 nm with an averaging time of 10 sec. and an average of three repeats on an Aviv Stopped Flow CD Spectropolarimeter (Model 202SF). Spectra were recorded using the identical method as described above. ADH-101 was added to the solution of IAPP at an equimolar ratio. […]

[2] = target: T2, IAPP-induced lipid membrane leakage (Homo sapiens, UniProt P10997); test: Fluorescein-based liposome leakage assay; assay type: biochemical
T2 construct: IAPP is a 37 residue neuropancreatic hormone peptide; purchased Anaspec (Fremont, Calif.)
T2 sequence (P10997 34-70 limits assumed): T1 sequence (P10997 34-70 limits assumed)
Text: Colocalization of IAPP at the mitochondrial membrane and the subsequent membrane poration is considered to be one of the potential contributors to β-cell toxicity. Therefore, a liposome leakage assay could serve as a surrogate marker for IAPP induced cytotoxicity (see Last, N. B.; Miranker, A. D. Proc. Natl. Acad. Sci. U.S.A. 2013, 110, 6382-6387; and Last, N. B.; Rhoades, E.; Miranker, A. D. Proc. Natl. Acad. Sci. U.S.A. 2011, 108, 9460-9465). A previously reported fluorescein-based liposome leakage assay was employed to test the effect of ADH-101 on membrane associated α-helical intermediates of IAPP. Briefly, fluorescein-dextran conjugate (MW=70 kDa) was encapsulated in unilamaller extruded lipid vesicles (DOPG:DOPC, 3:7, d=100 nm). The size of fluorescein-dextran conjugate allows it to stay inside the lipid vesicles during IAPP mediated membrane poration. The leakage kinetics was probed by the quenching of fluorescence using a fluorescent quencher, DPX (p-xylene-bis-pyridinium […]). The kinetic profiles of leakage are single exponential with a decrease in fluorescence as a function of time. The leakage reaction was initiated by introducing 200 μM liposome into a solution of 4 μM IAPP and 6 mM of DPX. The introduction of the excess ionic concentration by DPX was counterbalanced by adjusting the buffer concentration. The kinetics of the leakage mediated by IAPP yielded a single exponential profile with a leakage rate of 7.3±1.1×10^−3 s^−1 (FIG. 5A).
The kinetics of liposome leakage induced by IAPP was monitored on QuantaMaster C-61 fluorescence spectrometer (Photon Technology International, Edison, N.J.) at 25° C. […] The stock solution of IAPP used in the measurements was kept in water at a concentration of 1 mM. The stock solution of water soluble quencher, DPX (p-xylene-bis-pyridinium bromide) was prepared in buffer (100 mM KCl, 50 mM NaPi, pH 7.4) at a concentration of 100 mM. The small molecules used in the leakage assay were dissolved in DMSO with a concentration range of 10-20 mM. The final concentration of dye encapsulating liposome, DPX, human IAPP, and small molecules were 200, 6000, 4, and 4 μM respectively. The final buffer concentration was corrected using higher concentration of buffer to keep the osmolality balanced. […] To determine the leakage rate constant, first the fluorescence was normalized and corrected by subtracting it from normalized fluorescence of control reaction. The corrected fluorescence was fit using equation given below (using Origin 9.1). All the experiments were performed in triplicate and the error values presented are standard deviations. a*exp(−b*x)+c (2) a=amplitude from 100% unleaked to 0% leaked c=final fraction of unleaked liposome y=change in fluorescence b=leakage rate constant

RIN-m cells = test: Cell viability (CellTiter Blue), compound alone without IAPP; assay type: cell-based, Rat; settings: concentrations used for cell viability assays, no IAPP
Method: (§1) For cell toxicity assays, Rat insulinoma cells (RIN-m) were as they are considered to be a good model for pancreatic β-cells (see Huang, C.; Lin, C.; Haataja, L., Gurlo, T., Butler, A. E., Rizza, R. A., and Butler, P. C. Diabetes, 2007, 56, 2016-2027). Rat insulinoma RIN-m cells (ATCC, Manassas, Va.) were cultured in RPMI medium supplemented with 10% fetal bovine serum, 1% penicillin/streptomycin, […] sodium pyruvate, and […] β-mercaptoethanol (Life Technologies, Carlsbad, Calif.) at 37° C. and 5% CO2. Upon reaching ˜95% confluence, cells were washed with phosphate buffered saline (VWR, Radnor, Pa.), split using 0.25% Trypsin-EDTA (Life Technologies), and plated in clear 96-well plates (Corning, Glenview, Ill.) for cell viability assays.
(§2) Cell viability was measured using the CellTiter Blue (CTB, Promega, Madison, Wis.) fluorescence-based assay. Cells were plated at a density of 20,000 cells per well in 96 well plates. After 48 h of incubation at 37° C. and 5% CO2, cells were washed with 100 μL of PBS. […] Fluorescence of the dye was measured on a FlexStation3 microplate reader (Molecular Devices, Sunnyvale, Calif.). […] Percent viability was calculated as per the following equation: % Viability=100*[(<S>−<P>)/(<N>−<P>)]
(§3) Where <S>, <P>, and <N> are the average fluorescence intensities of the sample, positive control, and negative control, respectively.

[3] = test system: IAPP mediated cytotoxicity in Rat insulinoma cells (RIN-m); test: Cell viability (CellTiter Blue), IAPP-mediated cytotoxicity; assay type: cell-based; settings: 6 μM IAPP, 48 h, IAPP alone ~68%
Method: as §1, §2, §3

logP (Partition coefficient): 2.2
IAPP conformation by CD ([1]; phosphate buffer, after 8 hours): no β-sheet conformation was observed
conformation induced in IAPP ([1]; FIG. 3B): induces an α-helical conformation
induced CD signal around 340 nm ([1]; incubated with IAPP at equimolar ratio): positive induced CD signal
IAPP conformation by CD ([1]; lipid membrane (600 μM DOPG:DOPC 3:7), after 1 hour): stays in an α-helical state
leakage rate slower than the control reaction (IAPP only) ([2]; 4 μM IAPP, 4 μM compound, 200 μM liposome): ~3.5 times
effect on the integrity of the liposomes ([2]; ADH-101 alone, 4 μM, no IAPP): did not have any effect
SMILES: CCOC(=O)c1cc(NC(=O)c2cc(NC(=O)c3cc([N+](=O)[O-])cn3CC(C)C)cn2CC(C)C)cn1CCC(=O)O [ADH-101]
toxicity to the cells (RIN-m cells): not toxic
cell viability ([3]; ratio 1:1 (IAPP:ADH-101)): 100%
cell viability ([3]; ratio 1:2 (IAPP:ADH-101)): 100%
